One test concerns P388. Description: In vitro rate of inhibition of P388 tumor cell growth at 10E-7 mol/L. The format is functional, Mus musculus. Particulars: at 0.1 µM.
On to `CC1=NN(C(=O)OCc2ccccc2)C(C)N=N1` (configuration not stated), for which the Rate of inhibition is recorded as 2.3%.
Still for that read-out and setting: for `CCOC(=O)c1ccc(NC(=O)N2N=C(C)N(C(=O)Nc3ccc(C(=O)OCC)cc3)N=C2C)cc1` the value was 0%.
On the same count and under the same terms, in the case of `CC1=NN(C(=O)Nc2cccc([N+](=O)[O-])c2)C(C)=NN1C(=O)Nc1cccc([N+](=O)[O-])c1` it was 20.6%; in that of `CC1=NN(C(=O)Nc2ccc(Cl)cc2)C(C)=NN1C(=O)Nc1ccc(Cl)cc1`, 7.4%; in that of `CCC1=NN(C(=O)Nc2cccc(C)c2)C(CC)=NN1C(=O)Nc1cccc(C)c1`, 0%.
Still for that read-out and setting: for `CC1=NN(C(=O)Nc2cc(C)cc(C)c2)C(C)=NN1C(=O)Nc1cc(C)cc(C)c1` the value was 0%.
For the compound `COc1cccc(NC(=O)N2N=C(C)N(C(=O)Nc3cccc(OC)c3)N=C2C)c1`, the Rate of inhibition came to 95.2%.
Same read-out and setting: in the case of `c1ccc(C2=NNC(c3ccccc3)=NN2)cc1` it was 10.2%.

Another test concerns P388. Description: In vitro rate of inhibition of P388 tumor cell growth at 10E-5 mol/L. The format is functional, Mus musculus. The settings on record: at 10 µM.
Consider `CC1=NN(C(=O)OCc2ccccc2)C(C)N=N1` (configuration not stated), for which the Rate of inhibition worked out at 3%.
On the same count and under the same terms, in the case of `CCOC(=O)c1ccc(NC(=O)N2N=C(C)N(C(=O)Nc3ccc(C(=O)OCC)cc3)N=C2C)cc1` it was 25.4%; in that of `CC1=NN(C(=O)Nc2cccc([N+](=O)[O-])c2)C(C)=NN1C(=O)Nc1cccc([N+](=O)[O-])c1`, 58.7%; in that of `CC1=NN(C(=O)Nc2ccc(Cl)cc2)C(C)=NN1C(=O)Nc1ccc(Cl)cc1`, 14.8%.
Still for that read-out and setting: in the case of `CCC1=NN(C(=O)Nc2cccc(C)c2)C(CC)=NN1C(=O)Nc1cccc(C)c1` it was 63.5%; in that of `CC1=NN(C(=O)Nc2cc(C)cc(C)c2)C(C)=NN1C(=O)Nc1cc(C)cc(C)c1`, 91.7%; in that of `COc1cccc(NC(=O)N2N=C(C)N(C(=O)Nc3cccc(OC)c3)N=C2C)c1`, 93.8%.
The same measure, in the same setting: for `Cc1cccnc1-c1nnc(-c2ncccc2C)nn1` the value was 3.6%; for `c1ccc(C2=NNC(c3ccccc3)=NN2)cc1`, 67.2%.

In another test the test system is A549. The experiment in a line: In vitro rate of inhibition of A-549 tumor cell growth at 10E-6 mol/L. The settings on record: at 1 µM. The format is functional, Homo sapiens.
For `CC1=NN(C(=O)OCc2ccccc2)C(C)N=N1` (configuration not stated), the Rate of inhibition is listed as 0%.
The same measure, in the same setting: in the case of `CCOC(=O)c1ccc(NC(=O)N2N=C(C)N(C(=O)Nc3ccc(C(=O)OCC)cc3)N=C2C)cc1` it was 0%.
The compound `CC1=NN(C(=O)Nc2cccc([N+](=O)[O-])c2)C(C)=NN1C(=O)Nc1cccc([N+](=O)[O-])c1` returned a Rate of inhibition of 0%.
On the same count and under the same terms, for `CC1=NN(C(=O)Nc2ccc(Cl)cc2)C(C)=NN1C(=O)Nc1ccc(Cl)cc1` the value was 1.9%; for `CCC1=NN(C(=O)Nc2cccc(C)c2)C(CC)=NN1C(=O)Nc1cccc(C)c1`, 81.1%; for `CC1=NN(C(=O)Nc2cc(C)cc(C)c2)C(C)=NN1C(=O)Nc1cc(C)cc(C)c1`, 37.5%.
The same measure, in the same setting: for `COc1cccc(NC(=O)N2N=C(C)N(C(=O)Nc3cccc(OC)c3)N=C2C)c1` the value was 84.6%.
Still for that read-out and setting: for `c1ccc(C2=NNC(c3ccccc3)=NN2)cc1` the value was 0%.

A further test concerns A549. Description: In vitro rate of inhibition of A-549 tumor cell growth at 10E-5 mol/L. The format is functional, Homo sapiens. Particulars: at 10 µM.
Consider `CC1=NN(C(=O)OCc2ccccc2)C(C)N=N1` (configuration not stated), for which the Rate of inhibition was 0%.
On the same count and under the same terms, for `CCOC(=O)c1ccc(NC(=O)N2N=C(C)N(C(=O)Nc3ccc(C(=O)OCC)cc3)N=C2C)cc1` the value was 28.8%.
Same read-out and setting: for `CC1=NN(C(=O)Nc2cccc([N+](=O)[O-])c2)C(C)=NN1C(=O)Nc1cccc([N+](=O)[O-])c1` the value was 0%; for `CC1=NN(C(=O)Nc2ccc(Cl)cc2)C(C)=NN1C(=O)Nc1ccc(Cl)cc1`, 14.8%; for `CCC1=NN(C(=O)Nc2cccc(C)c2)C(CC)=NN1C(=O)Nc1cccc(C)c1`, 84.1%.
Still for that read-out and setting: in the case of `CC1=NN(C(=O)Nc2cc(C)cc(C)c2)C(C)=NN1C(=O)Nc1cc(C)cc(C)c1` it was 73.9%; in that of `COc1cccc(NC(=O)N2N=C(C)N(C(=O)Nc3cccc(OC)c3)N=C2C)c1`, 86.2%; in that of `Cc1cccnc1-c1nnc(-c2ncccc2C)nn1`, 0%.
Take `c1ccc(C2=NNC(c3ccccc3)=NN2)cc1`: the Rate of inhibition amounted to 69%.

The next test concerns A549. Description: In vitro rate of inhibition of A-549 tumor cell growth at 10E-8 mol/L. It is filed as functional, Homo sapiens. Particulars: at 0.01 µM.
For `CC1=NN(C(=O)OCc2ccccc2)C(C)N=N1` (configuration not stated), the Rate of inhibition is on record as 0%.
The same measure, in the same setting: in the case of `CCOC(=O)c1ccc(NC(=O)N2N=C(C)N(C(=O)Nc3ccc(C(=O)OCC)cc3)N=C2C)cc1` it was 0%; in that of `CC1=NN(C(=O)Nc2cccc([N+](=O)[O-])c2)C(C)=NN1C(=O)Nc1cccc([N+](=O)[O-])c1`, 0%; in that of `CC1=NN(C(=O)Nc2ccc(Cl)cc2)C(C)=NN1C(=O)Nc1ccc(Cl)cc1`, 0%.
`CCC1=NN(C(=O)Nc2cccc(C)c2)C(CC)=NN1C(=O)Nc1cccc(C)c1` yielded a Rate of inhibition of 1.6%.
On the same count and under the same terms, for `CC1=NN(C(=O)Nc2cc(C)cc(C)c2)C(C)=NN1C(=O)Nc1cc(C)cc(C)c1` the value was 0%.
Still for that read-out and setting: in the case of `COc1cccc(NC(=O)N2N=C(C)N(C(=O)Nc3cccc(OC)c3)N=C2C)c1` it was 86.2%.

In a further test the test system is P388. Description: In vitro rate of inhibition of P388 tumor cell growth at 10E-8 mol/L. The format is functional, Mus musculus. The settings on record: at 0.01 µM.
Regarding `CC1=NN(C(=O)OCc2ccccc2)C(C)N=N1` (configuration not stated), the Rate of inhibition was found to be 1%.
Still for that read-out and setting: in the case of `CCOC(=O)c1ccc(NC(=O)N2N=C(C)N(C(=O)Nc3ccc(C(=O)OCC)cc3)N=C2C)cc1` it was 0%; in that of `CC1=NN(C(=O)Nc2cccc([N+](=O)[O-])c2)C(C)=NN1C(=O)Nc1cccc([N+](=O)[O-])c1`, 22.2%.
The same measure, in the same setting: for `CC1=NN(C(=O)Nc2ccc(Cl)cc2)C(C)=NN1C(=O)Nc1ccc(Cl)cc1` the value was 0%; for `CCC1=NN(C(=O)Nc2cccc(C)c2)C(CC)=NN1C(=O)Nc1cccc(C)c1`, 0%.
The same measure, in the same setting: in the case of `CC1=NN(C(=O)Nc2cc(C)cc(C)c2)C(C)=NN1C(=O)Nc1cc(C)cc(C)c1` it was 0%; in that of `COc1cccc(NC(=O)N2N=C(C)N(C(=O)Nc3cccc(OC)c3)N=C2C)c1`, 92.2%.

The subject of another test is P388. Description: In vitro rate of inhibition of P388 tumor cell growth at 10E-4 mol/L. The settings on record: at 100 µM. The format is functional, Mus musculus.
`CC1=NN(C(=O)OCc2ccccc2)C(C)N=N1` (configuration not stated) came in with a Rate of inhibition of 24.1%.
Still for that read-out and setting: in the case of `CCOC(=O)c1ccc(NC(=O)N2N=C(C)N(C(=O)Nc3ccc(C(=O)OCC)cc3)N=C2C)cc1` it was 63.5%.
The same measure, in the same setting: for `CC1=NN(C(=O)Nc2cccc([N+](=O)[O-])c2)C(C)=NN1C(=O)Nc1cccc([N+](=O)[O-])c1` the value was 69.8%.
Still for that read-out and setting: in the case of `CC1=NN(C(=O)Nc2ccc(Cl)cc2)C(C)=NN1C(=O)Nc1ccc(Cl)cc1` it was 50%; in that of `CCC1=NN(C(=O)Nc2cccc(C)c2)C(CC)=NN1C(=O)Nc1cccc(C)c1`, 91.6%.
In turn, `CC1=NN(C(=O)Nc2cc(C)cc(C)c2)C(C)=NN1C(=O)Nc1cc(C)cc(C)c1` gave a Rate of inhibition of 90.7%.
Same read-out and setting: in the case of `COc1cccc(NC(=O)N2N=C(C)N(C(=O)Nc3cccc(OC)c3)N=C2C)c1` it was 95.3%.
The same measure, in the same setting: in the case of `Cc1cccnc1-c1nnc(-c2ncccc2C)nn1` it was 2.6%; in that of `c1ccc(C2=NNC(c3ccccc3)=NN2)cc1`, 55.8%.

The next test relates to P388. Description: In vitro rate of inhibition of P388 tumor cell growth at 10E-6 mol/L. Particulars: at 1 µM. It is filed as functional, Mus musculus.
On to `CC1=NN(C(=O)OCc2ccccc2)C(C)N=N1` (configuration not stated), for which the Rate of inhibition stood at 2%.
The same measure, in the same setting: in the case of `CCOC(=O)c1ccc(NC(=O)N2N=C(C)N(C(=O)Nc3ccc(C(=O)OCC)cc3)N=C2C)cc1` it was 1.6%.
Take `CC1=NN(C(=O)Nc2cccc([N+](=O)[O-])c2)C(C)=NN1C(=O)Nc1cccc([N+](=O)[O-])c1`: the Rate of inhibition is 38.1%.
The same measure, in the same setting: in the case of `CC1=NN(C(=O)Nc2ccc(Cl)cc2)C(C)=NN1C(=O)Nc1ccc(Cl)cc1` it was 1.9%; in that of `CCC1=NN(C(=O)Nc2cccc(C)c2)C(CC)=NN1C(=O)Nc1cccc(C)c1`, 0%.
Still for that read-out and setting: for `CC1=NN(C(=O)Nc2cc(C)cc(C)c2)C(C)=NN1C(=O)Nc1cc(C)cc(C)c1` the value was 31.5%; for `COc1cccc(NC(=O)N2N=C(C)N(C(=O)Nc3cccc(OC)c3)N=C2C)c1`, 93.8%; for `c1ccc(C2=NNC(c3ccccc3)=NN2)cc1`, 5.4%.

A further test concerns A549. The experiment in a line: In vitro rate of inhibition of A-549 tumor cell growth at 10E-4 mol/L. The format is functional, Homo sapiens. The settings on record: at 100 µM.
Compound `CC1=NN(C(=O)OCc2ccccc2)C(C)N=N1` (configuration not stated) yielded a Rate of inhibition of 0%.
On the same count and under the same terms, for `CCOC(=O)c1ccc(NC(=O)N2N=C(C)N(C(=O)Nc3ccc(C(=O)OCC)cc3)N=C2C)cc1` the value was 27.3%; for `CC1=NN(C(=O)Nc2cccc([N+](=O)[O-])c2)C(C)=NN1C(=O)Nc1cccc([N+](=O)[O-])c1`, 0.9%; for `CC1=NN(C(=O)Nc2ccc(Cl)cc2)C(C)=NN1C(=O)Nc1ccc(Cl)cc1`, 53.4%.
The same measure, in the same setting: in the case of `CCC1=NN(C(=O)Nc2cccc(C)c2)C(CC)=NN1C(=O)Nc1cccc(C)c1` it was 90.4%; in that of `CC1=NN(C(=O)Nc2cc(C)cc(C)c2)C(C)=NN1C(=O)Nc1cc(C)cc(C)c1`, 86.4%; in that of `COc1cccc(NC(=O)N2N=C(C)N(C(=O)Nc3cccc(OC)c3)N=C2C)c1`, 87.7%.
On the same count and under the same terms, for `Cc1cccnc1-c1nnc(-c2ncccc2C)nn1` the value was 0%; for `c1ccc(C2=NNC(c3ccccc3)=NN2)cc1`, 87.6%.

For a further test, the system named is A549. Description: In vitro rate of inhibition of A-549 tumor cell growth at 10E-7 mol/L. The format is functional, Homo sapiens. Particulars: at 0.1 µM.
Compound `CC1=NN(C(=O)OCc2ccccc2)C(C)N=N1` (configuration not stated) came in with a Rate of inhibition of 0%.
The compound `CCOC(=O)c1ccc(NC(=O)N2N=C(C)N(C(=O)Nc3ccc(C(=O)OCC)cc3)N=C2C)cc1` yielded a Rate of inhibition of 0%.
On the same count and under the same terms, for `CC1=NN(C(=O)Nc2cccc([N+](=O)[O-])c2)C(C)=NN1C(=O)Nc1cccc([N+](=O)[O-])c1` the value was 0%; for `CC1=NN(C(=O)Nc2ccc(Cl)cc2)C(C)=NN1C(=O)Nc1ccc(Cl)cc1`, 7.4%.
Same read-out and setting: in the case of `CCC1=NN(C(=O)Nc2cccc(C)c2)C(CC)=NN1C(=O)Nc1cccc(C)c1` it was 16.7%.
`CC1=NN(C(=O)Nc2cc(C)cc(C)c2)C(C)=NN1C(=O)Nc1cc(C)cc(C)c1` returned a Rate of inhibition of 0%.
`COc1cccc(NC(=O)N2N=C(C)N(C(=O)Nc3cccc(OC)c3)N=C2C)c1`: the Rate of inhibition amounted to 89.2%.
The compound `c1ccc(C2=NNC(c3ccccc3)=NN2)cc1` registered a Rate of inhibition of 0%.

The values above are taken from ChEMBL document CHEMBL1147590, “Synthesis and antitumor activity of s-tetrazine derivatives” (Bioorg Med Chem Lett, 2004).
